Assay results: patent publication US20080096909A1, “APOMORPHINE INHIBITORS OF AMYLOID-BETA (ABETA) FIBRIL FORMATION AND THEIR USE IN AMYLOIDOSIS BASED DISEASE” (priority 2001, published 2008)
Counter-ions that a name gives are not always drawn.

Columns and labels:
Aβ 1-40 [1] = biological target: T1, Aβ 1-40 (Homo sapiens, UniProt P05067); assay: Aβ 1-40 fibril formation inhibition judged by ThT, sedimentation velocity and electron microscopy; details: Aβ 1-40 100 μM; for Effect on Aβ 1-40 fibril formation (ThT, sedimentation velocity, EM): pH 7.4, 37° C., 3 days
T1 sequence (P05067 672-711): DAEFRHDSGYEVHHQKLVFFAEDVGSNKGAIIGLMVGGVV

Aβ 1-40 [2] = biological target: T1, Aβ 1-40; assay: Thioflavin T (ThT) fluorescence assay for fibril formation; assay type: biochemical; design: Amyloid-β (Aβ 1-40) was purchased from California Peptides (Lot # SF104); purchased California Peptides Lot # SF104; details: for Thioflavin T signal after longer incubation: longer incubation at 37° C., some long fibrils formed; for Thioflavin T signal with sodium metabisulphite added: stock solutions containing 1% (v/v) sodium metabisulphite, 37° C., pH 7.4, 3 days
Protocol: Preparation of Stock Peptide Solutions for Fibrillization Studies. Stock solutions of the inhibitors were prepared by dissolving the compounds at a concentration of 5-7 mM in water or in 1-1.5% DMSO solutions (for compounds with reduced solubility). Amyloid-β (Aβ 1-40) was purchased from California Peptides (Lot # SF104). Aβ 1-40 stock solutions were prepared by dissolving purified and lyophilized peptide in cold double distilled water to yield stock solutions at a concentration of 2 mg/mL. The stock solutions were used within 10-30 minutes of dissolution. Samples for fibril formation assay were prepared by diluting the appropriate amount of Aβ stock with pH 7.4 Tris-HCl buffer (50 mM Tris, 150 mM NaCl) to afford a final peptide concentration of 100 μM. […] Analytical ultracentrifugation, and electron microscopy were periodically used to ensure that we start our experiments with a hydrodynamically defined Aβ monomer, and the absence of any preformed fibrils in solution.
Thioflavin T (ThT) Fluorescence Assay for Fibril Formation. Thioflavin T was purchased from Aldrich (70% purity) and was recrystallized from benzene/ethanol (1:1) to afford yellow crystals (36). Thioflavin T binding assays were performed by addition of 50 μL of 100 μM Aβ solutions, which were incubated at 37° C. in the absence and presence of inhibitors, to 450 μL solution of 10 μM Thioflavin T in phosphate buffer (10 mM phosphate, 100 mM KCl). The solutions were mixed and fluorescence measurements were recorded in Biosystems model spectrofluorimeter at 25° C. using a 1 cm path length quartz cell. An excitation slit width of 4 nm and an emission slit width of 8 nm were employed. The excitation wavelength was set to 450 nm and emission monitored from 460-630 nm. The relative fluorescence at 482 nm was plotted for each sample, and was used as a measure of the amount of fibrillar aggregates in solution.

Aβ 1-40 [3] = biological target: T1, Aβ 1-40; assay: Electron microscopy of Aβ aggregates in the presence of inhibitor; assay type: biochemical; design: Amyloid-β (Aβ 1-40) was purchased from California Peptides (Lot # SF104); purchased California Peptides Lot # SF104; details: for Protofibril assembly into fibrils when compound is added to pre-incubated Aβ (EM and sedimentation velocity): Aβ pre-incubated 18-20 hr at 37° C., then three to nine days with compound
Protocol: Electron Microscopy. Electron microscopy was used to follow the changes in size and structural morphology of Aβ aggregates in the presence and absence of inhibitor at 37° C. as a function of time. EM samples were prepared by placing 5 μL of the Aβ solution on a carbon-coated grid and allowing the solution to stand for 2 min before removing excess solution. The grid was then washed once with distilled water and once with 1% uranyl acetate before staining the sample with fresh 1% uranyl acetate for another 2 min. The samples were then studied in a Phillips CM-100 electron microscope. The grids were thoroughly examined to get an overall statistical evaluation of the structures present in the sample. All electron micrographs were taken at 100 kV.

Aβ 1-40 [4] = biological target: T1, Aβ 1-40; assay: Sedimentation velocity of Aβ quaternary structures in the presence of inhibitors; assay type: biochemical; design: Amyloid-β (Aβ 1-40) was purchased from California Peptides (Lot # SF104); purchased California Peptides Lot # SF104; details: for Amount of nonfibrillar assemblies (protofibrils) formed by Aβ alone relative to that obtained in the presence of compound: 20 hour incubation; for Sedimentation velocities, 20 h (average sedimentation coefficient): Aβ 1-40 100 μM + compound 100 μM, 37° C.
Protocol: Probing the Mechanism of Amyloid Fibril Formation Inhibition using Sedimentation Velocity Experiments. To probe the mechanism by which apomorphine and its structural analogues inhibit Aβ fibril formation, sedimentation velocity was used to determine the distribution and molecular size of quaternary structures of Aβ in the presence and absence of inhibitors. Aβ samples (100 μM) in a pH 7.4 buffer (50 mM Tris-HCl, 150 mM NaCl) were incubated at 37° C. for 1-10 days in the presence and absence of inhibitors, then transferred to 25° C. for 1-3 hours before the sedimentation experiments were carried out at 20° C. The sedimentation properties of Aβ 1-40 in the absence and presence of inhibitors were obtained from data collected on a temperature controlled Beckman XL-1 using 400-420 μL of peptide solutions and data were recorded at rotor speeds of 3,000-30,000 rpm in continuous mode with a step size of 0.005 cm. The sedimentation velocity absorbance profiles were then analyzed using the time derivative (dc/dt) analysis program, which was provided by J. Philo, to obtain the sedimentation coefficient distribution g(*s) for all the quaternary structures in solution as described previously (37, 38).
Fitting of the g(*s) profiles allows for the determination of the sedimentation coefficient (peak position, with a unit of Svedberg, 1 S=10^−13 s) and the diffusion coefficient (from the peak width, with a unit of Fick, 1 F=[…]). This method has the advantage of allowing for the calculation of the molecular weight of the sedimenting species using equation II since s and D can be obtained from the fitting analysis. [formula]
In the cases where the diffusion coefficient cannot be determined accurately, the molecular weight of a spherical protein can still be estimated by combining the Svedberg equation and Stokes equation for the frictional coefficient to obtain equation III which utilizes the estimated sedimentation coefficient: [formula]
Sedimentation velocity was also used to determine the amount of soluble Aβ and Aβ monomer in solution after sedimentation of Aβ aggregates. […] The percent of monomeric species in solution was calculated using equation IV at 50,000 rpm and after complete sedimentation of Aβ high MW oligomeric species. Sedimentation equilibrium studies of the unsedimented species were carried out to determine whether a monomer, dimer or a mixture was present in solution. % of unsedimented Aβ=1−(Absorbance(290 nm, 3000 rpm)−Absorbance(290 nm, 20,000-30,000 rpm))×100 (IV)

[5] = Aβ coincubated with D030, 11 days at 37° C.

Structure (SMILES)	Effect on Aβ 1-40 fibril formation (ThT, sedimentation velocity, EM) (Aβ 1-40 [1])	Thioflavin T signal after longer incubation (Aβ 1-40 [2])	Thioflavin T signal with sodium metabisulphite added (Aβ 1-40 [2])	Protofibril assembly into fibrils when compound is added to pre-incubated Aβ (EM and sedimentation velocity) (Aβ 1-40 [3])	Amount of nonfibrillar assemblies (protofibrils) formed by Aβ alone relative to that obtained in the presence of compound (Aβ 1-40 [4])	Sedimentation velocities, 20 h (average sedimentation coefficient) (Aβ 1-40 [4])	other results
COc1ccc2c(c1O)-c1cccc3c1[C@@H](C2)N(C)CC3.Cl [R(−)-apocodeine, R(−)-Apocodeine hydrochloride]	showed no effect						
COc1ccc2c(c1O)-c1c3c(cc4c1[C@H](C2)N(C)CC4)OCO3 [bulbocapnine, Bulbocapnine hydrochloride]	showed no effect						
Br.Oc1ccc2c(c1O)-c1cccc3c1[C@@H](C2)NCC3 [D040, R(−)-Norapomorphine hydrobromide]		did not exhibit any changes	restoration of the ThT signal	exhibited similar behavior	~30%	31 S	
CCCN1CCc2cccc3c2[C@H]1Cc1ccc(O)c(O)c1-3.Cl [D027, R(−)-Propylnorapomorphine hydrochloride]		did not exhibit any changes	restoration of the ThT signal	no fibril formation	~30%	33 S	Inhibition of Aβ fibril formation by EM, aged or freshly prepared stock solutions (Aβ 1-40 [3]; three to four days at 37° C.): effective inhibition of Aβ fibril formation
Br.CN1CCc2cc(O)cc3c2[C@H]1Cc1ccc(O)c(O)c1-3 [D030, R(−)-2,10,11-Trihydroxyaporphine hydrobromide]		did not exhibit any changes	restoration of the ThT signal	least effective compound towards inhibiting protofibril assembly into fibrils	~30%	33 S	Thioflavin T signal after 11 days (Aβ 1-40 [2]; [5]): did not show a ThT signal; Concentration at which Aβ 1-40 fibril formation is inhibited (Aβ 1-40 [1]; incubation period of three days): 100 µM; Incubation period during which nonfibrillar assemblies remain the dominant species (EM and sedimentation velocity) (Aβ 1-40 [3]; 37° C., incubation extended to nine days): 1 to 3 days; Structures seen by EM after 9 days (Aβ 1-40 [3]; Aβ 100 μM, pH 7.4, 9 days at 37° C.): accumulation of some long fibrils in solution; Structures seen by EM after 11 days (Aβ 1-40 [3]; [5]): significant amounts of fibrils in solution
Br.CCCN1CCc2cc(O)cc3c2[C@H]1Cc1ccc(O)c(O)c1-3 [D029, R(−)-2,10,11-Trihydroxy-N-propylnorapomorphine hydrobromide]		did not exhibit any changes	restoration of the ThT signal	exhibited similar behavior	~30%	35 S	
COc1ccc2c(c1O)-c1c(OC)c(OC)cc3c1[C@H](C2)N(C)CC3.Cl [isocrydine, Isocrydine hydrochloride]	showed no effect						
CCCN1CCc2cccc3c2[C@H]1Cc1ccc2c(c1-3)OCO2.Cl [M121, R(−)-10,11-Methylenedioxy-N-n-propylnoraporphine hydrochloride]	showed no effect						
